Where two headings read alike, the source gives them in different places. Each block holds one compound with its values, some of them ahead of it.
Tests used:
[1] = tested on: cancer cells by cancer type; details: read-out: EC50 of Chemo SOC, cited from earlier work
[2] = target: T1, ALKBH5 (Homo sapiens (Human), UniProt Q6P6C2); assay: Fluorescence enzymatic inhibition assay (m6A7-Broccoli RNA / DFHBI-1T) against ALKBH5; format: biochemical; details: for IC50: read-out: Enzymatic IC50 ALKBH5
Method: (§1) Inhibitors were added in concentrations ranging from 0.008-40 μM; all inhibitors were dissolved in DMSO and added to a final concentration of 0.2% DMSO. […] After incubation at room temperature for 2 hours, the plates were left at 4° C. overnight (16 hours) to allow DFHBI-1T to bind to A7-Broccoli RNA. […] Sigmoidal dose-response curves were fitted in GraphPad Prism 6. All assays were performed in triplicate, with additional repetitions added as necessary.

[3] = tested on: TS576 glioblastoma stem cells; assay: Neurosphere (tumorosphere) formation assay, TS576; format: cell-based, human; details: TS576, 30 μM inhibitor, 2 days, vs vehicle control
Method: To understand the effects of our FTO inhibitors on the self-renewal properties of GSCs, tumorospheres cultured from the patient-derived GSC line TS576 were treated with 30 μM of FTO-04, FTO-10, FTO-11, or FTO-12 (FIG. 4-3AB; cell line gifted from the Furnari lab)^0.45, 46 The GSCs were cultured in sphere-forming assays for 24 hours, then treated with either inhibitors or DMSO control for 2 days. The size of the tumorospheres was calculated using ImageJ.
Early passaged GSCs were used to understand the efficacy of ALK-04 on the self-renewal capacity of GSCs by tumorsphere-formation assay as described earlier^10, 11. In brief, GSCs were seeded at 4×10^4 cells in 24 well plate and cultured for 3 days followed by treatment with ALK-04 inhibitors at 20 μM daily for 3 days. After 3 days of treatment the images of the tumorospheres were imaged with phase contrast microscope and size was measured with Image J, to understand the effects of drugs on the self-renewal of GSCs on sphere formation. This process was also repeated for healthy neural stem cells (hNSCs) treated daily with 20 μM ALK-04 for three days to assess the therapeutic ratio.

[4] = target: FTO (Homo sapiens (Human), UniProt Q9C0B1); assay: Fluorescence enzymatic inhibition assay (m6A7-Broccoli RNA / DFHBI-1T) against FTO; format: biochemical; details: for selectivity between FTO and ALKBH5: comparison of enzymatic IC50 values; for IC50: read-out: Enzymatic IC50 FTO
Method: In order to determine their efficacy as FTO inhibitors, the compounds were screened by a fluorescence enzymatic inhibition assay developed previously by the Jaffrey lab.^44 Briefly, a nonfluorescent methylated RNA substrate termed “m6A7-Broccoli” is incubated with FTO in the presence of 2-oxoglutarate (300 μM), (NH4)2Fe(SO4)2·6H2O (300 μM), and L-ascorbate (2 mM) for 2 hours at room temperature in reaction buffer (50 mM NaHEPES, pH 6).
as §1

[5] = target: T1, ALKBH5; details: reported from Huang et. al 2019; read-out: Enzymatic IC50 ALKBH5; cited from earlier work
[6] = tested on: MONOMAC6 and NB4 cells; details: Huang et. al; cited from earlier work
[7] = elogD / log D determination; details: Table 700 compounds
[8] = tested on: B16 cells; assay: B16 cell proliferation assay with ALKBH5 inhibitor; format: cell-based, mouse; details: 10, 30 and 50 μM ALKBH5 inhibitor vs DMSO
Method: B16 cells were plated at a density of 2000/well in 96-well plates in triplicate and incubated for 0, 2, 4, or 6 days before cell numbers were determined by manual counting or by using a CellTiter AQueous One Solution Cell Proliferation Assay kit (Promega).
Our results thus far indicate that loss f-m6A demethylase Alkbh5, in B16 melanoma cells, potentiates the efficacy of GVAX/anti-PD-1 therapy. To identify clinically relevant pharmacological inhibitors of Alkbh5, we have identified a specific inhibitor of ALKBH5, named ALK-04, by in silico screening of compounds using the X-ray crystal structure of ALKBH5 (PDB ID code 4NRO) and by performing structure-activity relationship studies on a library of synthesized compounds. […] Next, we compared tumor growth of control and inhibitor-treated mice during immunotherapy.

[9] = tested on: B16 melanoma tumors; assay: B16 melanoma mouse model, GVAX/anti-PD-1 immunotherapy with ALKBH5 inhibitor; format: in vivo; details: combined with PD-1 Ab and GVAX, vs control
Method: Animal studies and procedures were approved by the UCSD Institutional Animal Care and use Committee. Female C57BL/6J wild-type mice were obtained from The Jackson Laboratory and housed in the UCSD specific-pathogen free facility. 86.129S2-Tcratm1Mcrn/J (Tcra+) mice, which are CDC and CDB· T cell deficient, were obtained from The Jackson Laboratory and bred on-site. For the standard protocol, mice (aged 9-12 weeks at use) were injected subcutaneously (s.c.) with 5×10^5 B16 cells (NTC control, Fto-KO, or Alkbh5-KO, generated as described below) into the left flank on day 0, and then injected with 1 OE irradiated (100 GY) BIG-GM CSF cells (GVAX) into the opposite flank on days 1 and 4 to elicit an anti-tumor immune response. Mice were then injected intraperitoneally (i p.) with 10 mg/kg (−200 pgimouse) of rat monoclonal anti-mouse RD-I Ab (Bio X Cell, clone 29F. IA 12) on the days as indicated on the figures. For PD-1 Ab treatment alone, mice were implanted with B16 cells and treated with antibody on day 6, 9 and 12. For the Treg depletion experiments, mice were injected as described above and were additionally injected i.p. vittl rat anti-mouse CD25 Ab (Bio X Cell, clone 7D4) on day 11. Tumors were measured every 3 days beginning on day 7. […]

[10] = target: T1, ALKBH5; assay: Michaelis-Menten kinetics against ALKBH5; format: biochemical
[11] = m6A7-Broccoli fluorescence assay, 0.250 μM ALKBH5
[12] = m6A7-Broccoli fluorescence assay, 0.250 μM FTO, inhibitor up to 40 μM, triplicate

Chain of FTO (Q9C0B1 whole entry): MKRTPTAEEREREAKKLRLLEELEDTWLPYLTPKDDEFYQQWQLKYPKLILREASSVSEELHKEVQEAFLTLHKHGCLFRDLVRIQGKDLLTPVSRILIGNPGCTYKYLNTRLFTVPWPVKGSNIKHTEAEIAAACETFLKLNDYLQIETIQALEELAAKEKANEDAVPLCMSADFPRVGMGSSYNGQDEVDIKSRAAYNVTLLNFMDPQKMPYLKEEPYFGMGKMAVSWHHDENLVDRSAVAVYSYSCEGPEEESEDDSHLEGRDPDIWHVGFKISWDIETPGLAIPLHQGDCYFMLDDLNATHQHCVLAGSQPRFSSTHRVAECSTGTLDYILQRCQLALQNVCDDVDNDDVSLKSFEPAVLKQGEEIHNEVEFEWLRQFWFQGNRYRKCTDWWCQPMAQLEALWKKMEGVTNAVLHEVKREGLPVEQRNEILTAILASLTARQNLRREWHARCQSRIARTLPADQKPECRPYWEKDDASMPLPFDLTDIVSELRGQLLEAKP
T1 sequence (Q6P6C2 whole entry): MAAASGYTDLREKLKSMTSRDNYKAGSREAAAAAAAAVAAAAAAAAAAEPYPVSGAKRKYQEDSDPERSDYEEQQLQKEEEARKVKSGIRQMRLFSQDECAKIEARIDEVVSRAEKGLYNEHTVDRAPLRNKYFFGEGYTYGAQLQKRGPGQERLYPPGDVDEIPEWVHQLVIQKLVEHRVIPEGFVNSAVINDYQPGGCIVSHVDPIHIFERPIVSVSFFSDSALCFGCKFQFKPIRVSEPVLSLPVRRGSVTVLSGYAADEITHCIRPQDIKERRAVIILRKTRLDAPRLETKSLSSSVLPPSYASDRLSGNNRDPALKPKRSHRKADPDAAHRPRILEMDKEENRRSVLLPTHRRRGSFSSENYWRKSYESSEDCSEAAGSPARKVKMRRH

Structure (SMILES): O=C(c1cc(Cc2n[nH]c(=O)c3ccccc23)ccc1F)N1CCN(C(=O)C2CC2)CC1 [Olaparib]
EC50 ([1]; Breast): 30 µM

Structure (SMILES): Nc1ccn([C@@H]2O[C@H](CO)[C@@H](O)[C@@H]2O)c(=O)n1 [Cytarabine]
EC50 ([1]; Leukemia): 0.25 to 3.5 µM

IC50 [2, 11]: 19.5 µM | melting point: 230 °C | IC50 [4, 12]: 11.3 µM
Structure (SMILES): COc1ncc(-c2ccc3nc(C)ccc3c2)cn1 [FTO-11, 6-(2-methoxypyrimidin-5-yl)-2-methylquinoline]
size of tumorospheres [3]: significant reduction in size of the tumorospheres | selectivity between FTO and ALKBH5 [4]: equivalent inhibitors towards both demethylases

Structure (SMILES): Cc1noc(C)c1-c1cc(Cl)c(Nc2ccccc2C(=O)O)c(Cl)c1 [FB23]
IC50 [5]: > 40 µM

Structure (SMILES): N.N.[Cl][Pt][Cl] [cisplatin]
EC50 ([1]; Breast): 5 µM | EC50 ([1]; Esophagoel): 8 µM | EC50 ([1]; Gastric): 13.5 to 25 µM | EC50 ([1]; Ovarian): 2 to 40 µM | EC50 ([1]; Pancreatic): 20 to 26 µM

Structure (SMILES): Cc1noc(C)c1-c1cc(Cl)c(Nc2ccccc2C(=O)NO)c(Cl)c1 [FB23-2]
IC50 [5]: > 40 µM | cellular concentration relative to FB23 (fold) [6]: 3-10

Structure (SMILES): COc1ccc2cc(-c3cnc(N)nc3)ccc2c1 [FTO-12, 5-(6-methoxynaphthalen-2-yl)pyrimidin-2-amine]
inhibition of ALKBH5 at the highest concentration measured [2]: no measurable inhibition | IC50 [2, 11]: > 40 µM | size of tumorospheres [3]: significant reduction in size of the tumorospheres | melting point: 230 °C | selectivity between FTO and ALKBH5 [4]: five-fold or higher | IC50 [4, 12]: 18.3 ± 1.7 µM

Structure (SMILES): CS(=O)(=O)CCNCc1ccc(-c2ccc3ncnc(Nc4ccc(OCc5cccc(F)c5)c(Cl)c4)c3c2)o1 [lapatinib]
EC50 ([1]; Breast): 137 µM

inhibition of ALKBH5 at the highest concentration measured [2]: no measurable inhibition | IC50 [2, 11]: > 40 µM | melting point: 230 °C | IC50 [4, 12]: 41.7 µM
Structure (SMILES): Oc1ccc2cc(-c3cncnc3)ccc2c1 [FTO-1, 6-(pyrimidin-5-yl)naphthalen-2-ol]

IC50 [2, 11]: 36.1 µM | melting point: 230 °C | IC50 [4, 12]: 48.1 µM
Structure (SMILES): Nc1ncc(-c2ccc3cc(O)ccc3c2)cn1 [FTO-10, 6-(2-aminopyrimidin-5-yl)naphthalen-2-ol]
size of tumorospheres [3]: significant reduction in size of the tumorospheres | selectivity between FTO and ALKBH5 [4]: equivalent inhibitors towards both demethylases

Structure (SMILES): O=C1[O][Pt]2([NH][C@@H]3CCCC[C@H]3[NH]2)[O]C1=O [oxalplatin, oxaliplatin]
EC50 ([1]; Colon): 2 to 20 µM | EC50 ([1]; Esophagoel): 37 µM | EC50 ([1]; Pancreatic): 3.5 to 10 µM

Structure (SMILES): Nc1ccn([C@@H]2O[C@H](CO)[C@@H](O)C2(F)F)c(=O)n1 [gemcitabine]
EC50 ([1]; Pancreatic): < 1 µM

Structure (SMILES): O=c1[nH]cc(F)c(=O)[nH]1 [5FU, fluorouracil]
EC50 ([1]; Colon): 2 to 10 µM | EC50 ([1]; Gastric): 28.8 µM

elogD [7]: 0.29 | IC50 ([2]; Table 700 compounds): 0.9 ± 0.7 µM | mechanism of inhibition of ALKBH5 [10]: competitive inhibitor | IC50 ([4]; Table 700 compounds): > 40 µM
Structure (SMILES): CC(C)(C)OC(=O)N1CSC[C@@H]1CN [ALK-04]
B16 cell proliferation [8]: not significantly affected | B16 tumor growth during immunotherapy [9]: significantly reduced tumor growth

Structure (SMILES): COc1ccc2cc(-c3cncnc3)ccc2c1 [FTO-5, 5-(6-methoxynaphthalen-2-yl)pyrimidine]
inhibition of ALKBH5 at the highest concentration measured [2]: no measurable inhibition | IC50 [2, 11]: > 40 µM | melting point: 230 °C | selectivity between FTO and ALKBH5 [4]: five-fold or higher | IC50 [4, 12]: 13.4 ± 2.3 µM

IC50 [2, 11]: 16.4 µM | melting point: 230 °C
Structure (SMILES): COc1ccc2cc(-c3cnc(OC)nc3)ccc2c1 [FTO-8, 2-methoxy-5-(6-methoxynaphthalen-2-yl)pyrimidine]
selectivity between FTO and ALKBH5 [4]: equivalent inhibitors towards both demethylases
